Assay results taken from US10576082B2, “ErbB2 regulates autophagic flux to modulate the proteostasis of APP-CTFs in alzheimer's disease” (Academia Sinica, priority 2016, dated 2020).

Tests used:
[1] = test system: HEK293 cells overexpressing ErbB1, ErbB2, CFP-tagged C99, and YFP-tagged NΔE; test: Lysosome inhibitor rescue after ErbB2 knockdown, Western blotting of HEK293 cells co-expressing ErbB1, ErbB2, CFP-C99, YFP-NΔE; type: cell-based; settings: 10 μM chloroquine or 10 mM ammonium chloride, 37° C., 24 h after 48 h shRNA infection
Procedure: Clarified lysates containing equivalent amounts of proteins were analyzed by Western blotting. (B, C) HEK293 overexpressing CFP-LC3 cells were infected with lentivirus encoding shRNA targeting LacZ ErbB2, or ErbB2 plus ATG5 for 48 h. The autophagy induction was analyzed by fluorescence confocal microscopy. The number of CFP-LC3 puncta per cell was quantified. The levels of LC3-I, LC3-II, and GAPDH were analyzed by Western blotting. (D, E) HEK293 cells overexpressing ErbB1, ErbB2, CFP-tagged C99, and YFP-tagged NΔE were infected with lentivirus encoding shRNA targeting LacZ (Ctrl), ErbB1, or ErbB2 for 48 h. […] The levels of LC3-1, LC3-II, and p62 were analyzed by Western blotting and quantified by NIH Image J. Conditional media were harvested and processed for determination of secreted Aβ40 using a colourimetric Aβ40-specific ELISA kit. […] The quantitative data are shown as mean±SD from three independent experiments, and were analyzed by Student's t-tests. * p<0.05.
Preparation of cell extracts. […] Following the removal of cell debris by centrifugation, clarified lysates were processed for immunoprecipitation, Western blotting, or quantification of BCA protein content.
Western blotting analysis. Protein concentration was measured with the BCA Protein Assay Kit (Pierce). […]

[2] = test system: γ-secretase-mediated proteolysis of NΔE (NG cells); test: Cell-based NΔE-specific γ-secretase assay (NG cells, Gal4 luciferase reporter); settings: dose-dependent manner
Procedure: (§1) (A) Adherent CG and NG cells (20,000 cells/well) were treated with 1 μM of the indicated ErbB1/2-selective tyrosine kinase inhibitors in the presence of 1 μg/ml tetracycline at 37° C. for 24 h. The luminescence signals emitted by cells treated with vehicle alone (Ctrl, 0.1% DMSO) were referred to as 100% relative luminescence signals. The luminescence signals generated by γ-secretase-mediated proteolysis of C99 (CG) or NΔE (NG) were determined using the Steady-Glo luciferase assay reagent. (B) HEK293 overexpressing C99-YFP cells were treated with 1 μM of the indicated ErbB1/2 tyrosine kinase inhibitors at 37° C. for 24 h. Clarified lysates were analyzed by Western blotting and quantified by Image J. (C) HEK293 overexpressing ErbB1 ErbB2, CFP-tagged C99, and YFP-tagged NΔE cells were infected with gene-targeting shRNA-encoding lentivirus (shErbB1 or shErbB2) at 37° C. for 48 h. Clarified lysates containing equivalent amounts of proteins were examined by Western blotting and quantified by Image J. (D) CG and NG cells were infected with gene-targeting shRNA-encoding lentivirus at 37° C. for 48 h. Following induction with 1 μg/ml tetracycline for 24 h. […] Data are shown as the mean±SD from three independent experiments, and were analyzed by Student's t-tests. * p<0.05. […]

[3] = test system: γ-secretase cleavage of CFP-C99 and YFP-NΔE in HEK293 (CCNY) cells; test: Cell-based C99-NΔE dual γ-secretase assay (CCNY cells); settings: CCNY cell line
Procedure: To generate a cellular γ-secretase assay that could be used to simultaneously identify cleavage of C99 and NΔE and the production of AICD and NICD, we […] HEK293 cells with pAS2-CCNY and selected transfectants with DMEM medium containing 10% FBS and 250 μg/ml zeocin. […] The CCNY clone was selected and optimized for the cell-based C99-NΔE dual γ-secretase assay.

[4] = test system: zebrafish embryos expressing GFP-tagged C99; test: Phenotype of C99-expressing zebrafish embryos (curved trunk, Notch-dependent somite development); type: in vivo; settings: zebrafish, in vivo
[5] = test system: γ-secretase-mediated proteolysis of C99 (CG cells); test: Cell-based C99-specific γ-secretase assay (CG cells, Gal4 luciferase reporter); settings: dose-dependent manner
Procedure: as §1

SMILES: Cl.N [ammonium chloride]
- rescue of the reduction in C99 and AICD elicited by ErbB2 knockdown [1]: rescued

SMILES: CCN(CC)CCCC(C)Nc1ccnc2cc(Cl)ccc12 (stereo not drawn) [chloroquine]
- rescue of the reduction in C99 and AICD elicited by ErbB2 knockdown [1]: rescued

SMILES: C[C@H](NC(=O)Cc1cc(F)cc(F)c1)C(=O)N[C@H](C(=O)OC(C)(C)C)c1ccccc1 [DAPT, N—[N-(3,5-difluorophenacetyl-L-alanyl)]-S-phenylglycine t-butyl ester]
- γ-secretase-dependent luciferase signals in NG cells [2]: decreased γ-secretase-dependent luciferase signals
- cleavage of CFP-C99 and YFP-NΔE [3]: completely suppressed
- embryo phenotype (trunk, tail, pigmentation; developmental defects) [4]: severe developmental defects
- γ-secretase-dependent luciferase signals in CG cells [5]: decreased γ-secretase-dependent luciferase signals
